Assay results from EP1005865A1, “A anti-allergy anti-inflammatory composition comprising nimesulide and cetirizine” (priority 1998, dated 2000).
Where a name gives a salt, the structure may show the parent alone.

Assays:
[1] = system: Histamine induced bronchoconstrictor in guinea pigs; experiment: Histamine-induced bronchospasm in anaesthetised, ventilated guinea pig (insufflation pressure); conditions: for Histamine Challenge (% Insufflation pressure) 5 µg/kg: histamine 5 µg/kg iv, control 187.42 ± 22.49; for Histamine Challenge (% Insufflation pressure) 10 µg/kg: histamine 10 µg/kg iv, control 239.07 ± 43.64
[2] = system: Antigen (egg albumin) induced bronchoconstrictor in guinea pigs; experiment: Egg albumin (antigen)-induced bronchospasm in sensitized guinea pig (insufflation pressure)
Procedure: The animals were stabilized for 10 minutes.
Cetirizine was dissolved in deionized water. […] Histamine and d-tubocurarine chloride were dissolved in saline and Leukotriene D4 was diluted with Methanol and Ammonium Acetate buffer in a ratio of 70 : 30 at a pH of 5.4.
Guinea pigs were sensitized by injections of 100 mg of Egg albumin ip and 100 mg Egg albumin sc in saline. Guinea pigs were used after day 21st.

[3] = system: Leukotriene D4 (LTD4) induced bronchoconstrictor in guinea pigs; experiment: Leukotriene D4-induced bronchospasm in guinea pig (insufflation pressure); conditions: for % Insufflation pressure after LTD4 1 µg/kg LTD4: control 186.02 ± 52.58; for % Insufflation pressure after LTD4 2 µg/kg LTD4: control 246.56 ± 14.33; for decrease in % insufflation pressure, LTD4-induced bronchoconstriction: matches the 1 µg/kg LTD4 column of Table 3
PDE IV = PDE IV inhibitor in vitro, reported; cited from earlier work
chronic hives patients = conditions: daily regimen of 10mg of cetirizine; cited from earlier work
[4] = cited from earlier work
[5] = Nimesulide 11.66 mg/kg p.o 2 hours before challenge
[6] = Nimesulide 23.32 mg/kg p.o 2 hours before challenge
[7] = Cetrizine 1.16 mg/kg p.o 2 hours before challenge
[8] = Cetrizine 1.16 mg/kg p.o 2 hours before challenge, n 1

Structure (SMILES): CS(=O)(=O)Nc1ccc([N+](=O)[O-])cc1Oc1ccccc1 [Nimesulide]
- effect on histamine induced increase in insufflation pressure ([1]; Nimesulide single dose, S, 11.66 mg/kg and double dose, D, 23.32 mg/kg): no significant inhibitory effect
- antihistaminic effect, histamine induced bronchoconstriction ([1]; Nimesulide, dose not given): no antihistaminic effect
- Histamine Challenge (% Insufflation pressure) 5 µg/kg [1, 5]: 171.07 ± 23.76%
- Histamine Challenge (% Insufflation pressure) 5 µg/kg [1, 6]: 163.15 ± 43.27%
- Histamine Challenge (% Insufflation pressure) 10 µg/kg [1, 5]: 236.47 ± 40.40%
- Histamine Challenge (% Insufflation pressure) 10 µg/kg [1, 6]: 205.10 ± 31.33%
- decrease in % insufflation pressure, egg albumin induced bronchoconstriction ([2]; Nimesulide 11.66 mg/kg p.o, matches the 1 mg/kg egg albumin column of Table 2): 90.24%
- effect on egg albumin induced insufflation pressure ([2]; egg albumin 1 mg/kg, 2 mg/kg, Nimesulide 11.66 mg/kg): significantly reduced
- % Insufflation pressure after egg albumin challange 1 mg/kg ([2]; sensitized guinea pigs, egg albumin 1 mg/kg, Nimesulide 11.66 mg/kg p.o, control 111.88 ± 10.53): 9.76 ± 4.17 %
- % Insufflation pressure after egg albumin challange 2 mg/kg ([2]; sensitized guinea pigs, egg albumin 2 mg/kg, Nimesulide 11.66 mg/kg p.o, control 196.90 ± 32.98): 19.39 ± 4.32 %
- % Insufflation pressure after LTD4 1 µg/kg LTD4 [3, 5]: 192.45 ± 45.53%
- % Insufflation pressure after LTD4 1 µg/kg LTD4 [3, 6]: 38.99 ± 19.79 %
- % Insufflation pressure after LTD4 2 µg/kg LTD4 [3, 5]: 197.02 ± 37.76%
- % Insufflation pressure after LTD4 2 µg/kg LTD4 [3, 6]: 140.07 ± 61.15 %
- effect on insufflation pressure, LTD4-induced contractions ([3]; Nimesulide 11.66 mg/kg): no effect
- decrease in % insufflation pressure, LTD4-induced bronchoconstriction ([3]; Nimesulide 23.32 mg/kg p.o): 61.0%
- effect on LTD4-induced contractions ([3]; double dose Nimesulide 23.32 mg/kg): potent inhibitory effect
- IC50 (PDE IV): ~40 µM

Structure (SMILES): O=C(O)COCCN1CCN(C(c2ccccc2)c2ccc(Cl)cc2)CC1 (centres unmarked) [Cetrizine, Cetirizine dihydrochloride]
- decrease in % insufflation pressure, histamine induced bronchoconstriction ([1]; Cetirizine 1.16 mg/kg p.o, matches the 5 µg/kg histamine column of Table 1): 62.71%
- Histamine Challenge (% Insufflation pressure) 5 µg/kg [1, 7]: 37.29 ± 6.76 %
- Histamine Challenge (% Insufflation pressure) 10 µg/kg [1, 7]: 68.35 ± 18.20 %
- effect on histamine induced increase in insufflation pressure ([1]; histamine 5 and 10 µg/kg, Cetirizine 1.66 mg/kg (so in the source)): significantly reduced
- % Insufflation pressure after LTD4 1 µg/kg LTD4 [3, 8]: 57.14%
- % Insufflation pressure after LTD4 2 µg/kg LTD4 [3, 8]: 92.85%
- effect on LTD4-induced contractions ([3]; Cetirizine 1.16 mg/kg): significantly blocked
- decrease in % insufflation pressure, LTD4-induced bronchoconstriction ([3]; Cetirizine 1.16 mg/kg p.o): 42.86%
- chronic hives patients reporting excellent results (chronic hives patients): ~70%

Structure (SMILES): O=C(O)c1cc(=O)c2c(OCC(O)COc3cccc4oc(C(=O)O)cc(=O)c34)cccc2o1 [cromolyn sodium]
- half-life ([4]; inhaled, taken 4 times daily): 45 to 100 min
- fraction of an oral dose absorbed ([4]; oral dose): about 1%
